Structures are written as SMILES.

In series [1] the test system is non-centrosome amplified DLD1 (4N) cells. Kind of series: Multipolar spindle assay (4N cell line). It is filed as cell-based, human. To be noted: for % Multipolarity above baseline @ 15 mM (4N cells): supplementary CSV; for % multipolarity above baseline @ 15 μM (4N cells): 4N DLD1 cells (Table 4). An excerpt:
The cellular models consisted of chromosomally stable human colon cancer DLD1 diploid (2N) and tetraploid (4N) cells, along with tetraploid centrosome -amplified (4NCA) DLD1 cells and DLD1 HSET knockout (KO) cells. DLD1 2N and 4N cells were generated and characterized as previously described.[27],[41],[42] In order to generate 4NCA cells, we used dihydro-cytochalasin B (DCB) to transiently block cytokinesis and induce tetraploidisation and centrosome amplification in DLD1 cells. Centrosome amplification in 4NCA cells is transient and therefore they were generated from 2N cells for each run of the assay.[27] The DLD1 HSET KO cells were knockout clones generated by CRISPR and validated by sequencing to have a homozygous deletion in the KIFC1 gene.
Inhibition of HSET-mediated clustering was measured using a phenotypic assay measuring the formation of multipolar metaphase spindles in DLD1 cells with (4NCA) or without (4N) centrosome amplification. 4NCA cells were generated by treating 2N DLD1 cells with 2 μΜ DCB for 24 h, washed, and released in growth media for 24 h. 4N and 4NCA DLD1 cells were plated in 96-well ibidi μ-Clear plates (IB-89626, ibidi) with a no. 1.5 polymer coverslip bottom with optimal imaging properties. To enrich the mitotic population, cells were first treated for 3.5 h with 8 μM pro-TAME (I-440-01M, R&D system), an inhibitor of APC/C that transiently arrests cells in metaphase without affecting the structure of the spindle. Following the initial arrest, cells were treated with HSET compounds in the presence of 8 μM MG-132 (S2619, SelleckChem), a proteasome inhibitor that helps to maintain the metaphase arrest, where the number of spindle poles/cell can be optimally quantified by an automated segmentation analysis.
Cells were then fixed in methanol and stained for 3 h for mitotic pole marker aurora A (1:1000 610939 mouse anti-IAK1, BD Biosciences) and phosphorylated histone H3 (1:1500 ab47297 anti-histone H3 pS10, Abcam) as a marker of mitotic cells in 1.5% FBS in PBS. Following primary antibody treatment, cells were incubated with secondary antibodies Alexa Fluor 488 goat antimouse and Alexa Fluor 555 goat antirabbit (1:1500, A11029 and A21429, respectively, Life Technologies) together with 1 μg/mL DAPI (D9542, Sigma) in 1.5% FBS in PBS. Image acquisition was performed at 10× using the GE INCELL 2200 High Content Imaging System (Cytiva) and analyzed using the InCell Investigator software. Mitotic cells were identified by high pHH3 staining and were scored as multipolar if they had more than two mitotic spindle poles. The percentage of multipolar mitoses was calculated by dividing the number of multipolar mitoses by the total of all visible mitoses in one well of a 96-well plate (n > 100 for each replicate, two replicates per concentration point).

Series [2] concerns the target T1, recombinant full-length HSET (Homo sapiens, UniProt Q9BW19).
T1 construct: 5 nM full-length human N-terminal His-tag HSET; His-tag (N)
T1 sequence (Q9BW19 1-673): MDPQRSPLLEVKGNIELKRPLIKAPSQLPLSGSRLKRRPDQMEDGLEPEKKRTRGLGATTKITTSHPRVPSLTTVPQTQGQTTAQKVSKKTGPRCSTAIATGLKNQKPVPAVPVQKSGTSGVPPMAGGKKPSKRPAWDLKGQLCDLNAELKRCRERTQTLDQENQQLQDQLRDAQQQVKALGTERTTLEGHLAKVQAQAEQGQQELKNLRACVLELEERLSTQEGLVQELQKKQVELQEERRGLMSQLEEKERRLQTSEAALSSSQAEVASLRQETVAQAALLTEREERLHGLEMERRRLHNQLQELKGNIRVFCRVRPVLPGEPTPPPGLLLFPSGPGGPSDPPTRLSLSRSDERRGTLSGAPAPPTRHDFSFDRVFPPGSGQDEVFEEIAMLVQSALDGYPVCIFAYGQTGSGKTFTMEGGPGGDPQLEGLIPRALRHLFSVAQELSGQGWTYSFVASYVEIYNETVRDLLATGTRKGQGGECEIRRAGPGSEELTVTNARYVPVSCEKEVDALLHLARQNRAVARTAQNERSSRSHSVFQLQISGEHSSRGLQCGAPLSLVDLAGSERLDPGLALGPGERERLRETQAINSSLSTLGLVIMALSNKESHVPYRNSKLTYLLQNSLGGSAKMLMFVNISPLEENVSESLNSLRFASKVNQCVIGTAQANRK
Kind of series: ADP-Glo HSET assay (3 μM ATP), microtubule-stimulated ATPase. It counts as biochemical. To be noted: for IC50: preformed microtubules, 3 μM ATP, read-out: HSET ADP-Glo IC50. Put shortly:
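His-tagged full-length HSET (5 nM) or GST-Eg5 motor domain (4 nM), with 70 μg/mL paclitaxel-stabilised microtubules in HEPES pH 6.8 buffer, was preincubated with compound for 10 min. ATP was then added (3 or 500 μM for HSET, 4.8 μM for Eg5), followed by 80 min at 25 °C and ADP-Glo luminescence. IC50 was fitted with a four-parameter logistic.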
(In ADP-Glo the light output rises with the ADP produced.)

The target of series [3] is T1, recombinant full-length HSET. Kind of series: ADP-Glo HSET assay (500 μM ATP). It is filed as biochemical. To be noted: high ATP concentration of 500 μM; single determination or mean of two. The protocol:
The HSET or Eg5 ATPase activity was measured using the ADP-Glo Kinase Assay kit (Promega, V9102). The assays were run using final concentrations of 5 nM full-length human N-terminal His-tag HSET or 4 nM GST-tagged Eg5 motor domain protein (Cytoskeleton, EG01) and an assay buffer containing 20 mM HEPES pH 6.8, 10 mM MgCl2, 0.25 mM EGTA, 0.4 mM Triton X-100, and 1 mM DTT. Preformed microtubules (Universal Biologicals Cambridge, bovine MT001-XL, or porcine MT002-XL), which were reconstituted in 15 mM PIPES pH 7, 1 mM MgCl2, and 20 μM paclitaxel, were present at a final assay concentration of 70 μg/mL. A reaction volume of 5 μL was used in Proxiplate 384 plus white assay plates (PerkinElmer, 6008280). To measure compound inhibition, 100 nL of compound dissolved in DMSO or DMSO alone was preincubated with the HSET and microtubules for 10 min before 3 μM Ultra-Pure ATP was added to start the ATPase reaction for the 3 μM ATP HSET assay. For the 500 μM ATP HSET assay, the addition of 500 μM Ultra-Pure ATP was used. For the Eg5 ATPase assay, 4.8 μM Ultra-Pure ATP was used. All reactions were incubated at 25 °C for 80 min and then stopped by the addition of 5 μL of the ADP-Glo reagent. 10 μL of Kinase Detection Reagent was then added after a further 45 min of incubation. The luminescence was read after 45 min on a PheraStar FSX plate reader (BMG Labtech). The data processing was performed using Dotmatics Studies software package. Percentage inhibition was determined based on normalization to high controls (0% inhibition, all reagents with 100 nL of DMSO alone) and low controls (100% inhibition […], without HSET). The IC50 values for each compound were determined using a four-parameter logistic curve fit of % inhibition versus concentration.

Series [4] is described as follows: Kinetic aqueous solubility (KSol), HPLC-UV. It is filed as physicochemical. As to conditions: PBS buffer pH 7.4, 100 μM solution with 1% DMSO, HPLC with UV detection.
The mark [5] stands for this setting: mean (±SD) n ≥ 3 (37 n = 2, 38 single determination) (Table 3).

For orientation: IC50 means the midpoint of a concentration-inhibition curve. In the case of `CCCOC(=O)c1sc(NC(=O)CCNC(=O)c2cccc(-c3noc(C)n3)c2)nc1C` [Compound 32, Propyl 4-Methyl-2-(3-(3-(5-methyl-1,2,4-oxadiazol-3-yl)benzamido)propanamido)thiazole-5-carboxylate], the “% Multipolarity above baseline @ 15 mM (4N cells)” value in series [1] (15 μM) was determined as 2%. The “effect on multipolar mitoses (4N), in words” value in series [1] (15 μM, non-centrosome amplified DLD1 (4N) cell line) is on record as “minimal effect”. For the same molecule, the “% multipolarity above baseline @ 15 μM (4N cells)” value in series [1] stood at 2%. For the same molecule, the LE in series [2] (LE = −1.4Log(IC50 [M])/number of non-hydrogen atoms (Table 2)) is reported as 0.35. Besides, the LLE in series [2] (LLE = −Log(IC50 [M]) – cLogP (MoKa) (Table 2)) came out at 4.8. Further, the IC50 in series [2] (mean (±SD) n ≥ 3 (Table 4)) is 12 nM; in series [2] (mean (±SD) n ≥ 3, >200 from a single determination (Table 2)) it was 12 nM; in series [3], 51 nM. Further, the “fold increase in HSET inhibition” value in series [2] (propyl ester versus ethyl ester 13) was “fivefold”.
`CCCOC(=O)c1sc(NC(=O)C[C@H](CCCNC)NC(=O)c2cccc(-c3noc(C)n3)c2)nc1C` [Compound 35, Propyl (S)-4-Methyl-2-(3-(3-(5-methyl-1,2,4-oxadiazol-3-yl)benzamido)-6-(methylamino)hexanamido)thiazole-5-carboxylate] gave a KSol data in series [4] of more than 90 µM. The “% Multipolarity above baseline @ 15 mM (4N cells)” value in series [1] (15 μM) stood at 1%. Besides, in series [1], the “% multipolarity above baseline @ 15 μM (4N cells)” value was 1%. Besides, the IC50 in series [2] (setting [5]) is 19 nM; in series [2] (mean (±SD) n ≥ 3 (Table 4)), 19 nM; in series [3] it was 66 nM.
`CCCOC(=O)c1sc(NC(=O)C[C@H](CCCN(C)C)NC(=O)c2cccc(-c3noc(C)n3)c2)nc1C` [Compound 36, Propyl (S)-2-(6-(Dimethylamino)-3-(3-(5-methyl-1,2,4-oxadiazol-3-yl)benzamido)hexanamido)-4-methylthiazole-5-carboxylate]: in series [4], the KSol data is more than 90 µM. Further, the “% Multipolarity above baseline @ 15 mM (4N cells)” value in series [1] (15 μM) turned out to be 1%. Further, the “% multipolarity above baseline @ 15 μM (4N cells)” value in series [1] is given as 1%. Also, the half-maximal inhibitory concentration (IC50) in series [2] (setting [5]) amounted to 11 nM; in series [2] (mean (±SD) n ≥ 3 (Table 4)) it was 11 nM; in series [3] it was 90 nM.
Take `CCCOC(=O)c1sc(NC(=O)C[C@H](CCCN(C)C(=O)O[C@@H]2CC/C=C/CCC2)NC(=O)c2cccc(-c3noc(C)n3)c2)nc1C` [Compound 38, Propyl 2-((S)-6-(((((S,E)-Cyclooct-4-en-1-yl)oxy)carbonyl)(methyl)amino)-3-(3-(5-methyl-1,2,4-oxadiazol-3-yl)benzamido)hexanamido)-4-methylthiazole-5-carboxylate]: the KSol data in series [4] was 1.8 µM. For the same molecule, the “fold decrease in HSET activity” value in series [2] (compared to its parent compound (35)) is given as 11 fold. The half-inhibitory concentration (IC50) in series [2] (setting [5]) is 217 nM.

For the origin of these results see article PMC9969401, “Discovery of 2-(3-Benzamidopropanamido)thiazole-5-carboxylate Inhibitors of the Kinesin HSET (KIFC1) and the Development of Cellular Target Engagement Probes” (Journal of Medicinal Chemistry, 2023).
